Here are results for seven molecules from patent publication US20050187196A1, “Treatment of attention disorders” (Saegis Pharmaceuticals, Inc., priority 2004, published 2005).

For experiment [1], the system named is striatal dopamine release. The settings on record: administration in the substantia nigra pars reticulata (SNr); cited from earlier work.
Experiment [2] has as its system dopamine (DA) neurons in the ventral tegmental area (VTA). Particulars: systemic administration; cited from earlier work.
For experiment [3], the system named is wildtype mice (C3H/HeSNJ). As to the kind of experiment: Open field test, wildtype mice. In kind it is in vivo, mouse. The settings on record: for locomotor activity of wildtype controls: final 30 min. An excerpt:
(§1) Male and female mice heterozygous for the coloboma spontaneous mutation (C3H/HeSnJ-Cm/J) and wild type (C3H/HeSNJ) mice from Jackson Laboratories (Bar Harbor, Me.) were used in this study. Upon receipt, mice were assigned unique identification numbers (tail marked) and were housed in polycarbonate cages with filter tops. All mice were acclimated to the colony room for at least two weeks prior to testing. During the period of acclimation, mice were examined on a regular basis, handled, and weighed to assure adequate health and suitability. Mice were maintained on a 12/12 light/dark cycle. Chow and water were provided ad libitum for the duration of the study. In each test, animals were randomly assigned across treatment groups and balanced by age and by gender. Animals were not disturbed between test days.
(§2) The open field test (OF) is used to assess both anxiety-like behavior and motor activity. The open field chambers are Plexiglas square chambers (27.3×27.3×20.3 cm; Med Associates Inc., St Albans, Vt.) surrounded by infrared photobeam sources (16×16×16). The enclosure was configured to split the open field into a center and periphery zone and the photocell beams were set to measure activity in the center and in the periphery of the OF chambers. Animals having higher levels of anxiety or lower levels of activity tend to stay in the corners of the OF enclosures. On the other hand, mice that have high levels of activity and low levels of anxiety tend to spend more time in the center of the enclosure. Distance traveled is measured from consecutive beam breaks. Measures of peripheral or central distance covered during locomotion were used as an index of activity.
ABPA (0.3, 3 and 30 mg/kg) and atomoxetine (0.1 mg/kg) were dissolved in saline and administered i.p. at the injection volume of 10 ml/kg. Mice were pretreated with saline, ABPA, or atomoxetine for 30 min, after which their behavior was recorded in the OF chambers for a 60-min test session. At the end of each open field test session the OF chambers were thoroughly cleaned with Clorox wipes. Mice were returned to their home cage after testing and then to the colony room. Mice were retested every week. […] Data were analyzed by analysis of variance (ANOVA), followed by Fisher PLSD post-hoc analysis when appropriate. […]
Since the effects of all drugs reached a stable response by 20-30 min following the start of the experiment, the data was analyzed in 2 time periods: 1) total 60 min test session and 2) the last 30 min of the test session. The quantified data over the final 30 min time period are presented. […] As measured by total distance traveled, the coloboma mice had roughly 6- to 10-fold higher saline-induced activity compared to the wildtype mice (11,246±3213 centimeters vs. 1035±252 centimeters, FIGS. 3A and 3B).

Experiment [4] deals with coloboma mutant mice (Cm/+). As to the kind of experiment: Open field test, coloboma mutant mice. In kind it is in vivo, mouse. Particulars: for frequency of zone crossings / total distance traveled / locomotor activity: final 30 min.
Excerpt: as §1, §2
ABPA (0.3, 3 and 30 mg/kg) and atomoxetine (0.1 mg/kg) were dissolved in saline and administered i.p. at the injection volume of 10 ml/kg. Mice were pretreated with saline, ABPA, or atomoxetine for 30 min, after which their behavior was recorded in the OF chambers for a 60-min test session. At the end of each open field test session the OF chambers were thoroughly cleaned with Clorox wipes. Mice were returned to their home cage after testing and then to the colony room. Mice were retested every week. The washout period between tests ranged from 3-7 days. Data were analyzed by analysis of variance (ANOVA), followed by Fisher PLSD post-hoc analysis when appropriate. An effect was considered significant if p<0.05. Outliers that fell above and below two standard deviations away from the mean were removed from the final analysis.
Since the effects of all drugs reached a stable response by 20-30 min following the start of the experiment, the data was analyzed in 2 time periods: 1) total 60 min test session and 2) the last 30 min of the test session. The quantified data over the final 30 min time period are presented. Repeated measure ANOVA found a significant genotype and drug interaction over both time periods. As measured by total distance traveled, the coloboma mice had roughly 6- to 10-fold higher saline-induced activity compared to the wildtype mice (11,246±3213 centimeters vs. 1035±252 centimeters, FIGS. 3A and 3B).

A further experiment deals with patients with MCI. As to the kind of experiment: CANTAB tests of psychomotor speed, clinical trials. In kind it is in vivo, human. The method, then:
(§3) A clinical trial was initiated to determine the effect of the GABAB receptor antagonist, ABPA, on specific tests of cognition in non-demented older individuals with diminished memory function who met prospective criteria for mild cognitive impairment (MCI). Patients aged 60-85 with MCI enrolled in this double-blind, randomized trial. Patients were randomized to ABPA (600 mg tid) or placebo for 8 weeks. Verbal, paper and computer tests of memory and cognition were made by trained assessors at baseline (before administration of ABPA or placebo) and after 2, 5, and 8 weeks of treatment. Among these were selected tests from the Cambridge Neuropsychological Test Automated Battery (CANTAB), a computerized battery of tests for neuropsychological evaluation (Robbins et al., 1994, “Cambridge Neuropsychological Test Automated Battery (CANTAB): A factor analytic study of a large sample of normal elderly volunteers,” Dementia 5:266-281). Tests assessing memory, attention and psychomotor speed were administered to the patient by a neuropsychologist or equivalent via a computer with a touch screen, thus testing the individual's cognitive performance rather than ability to use a computer. CANTAB tests have been proven to be highly sensitive and specific in differentiating patients with a number of neurological conditions from each other and from normal controls.

For experiment [5], the system named is patients with mild cognitive impairment (MCI). As to the kind of experiment: Five Choice Reaction Time test (CANTAB), clinical trial. Particulars: 600 mg tid. It is filed as in vivo, human. On the procedure: as §3
110 patients were randomized; 75 were administered ABPA and 35 were administered placebo (56% men; mean age: 74 years).
The Five Choice Reaction Time test measures the speed of response to the appearance of a visual stimulus. Patients rested their hand on a press-pad placed on the desk directly in front of the computer screen, holding down the press-pad until a brief yellow flash appeared in 1 of the 5 circles located at various positions around the screen. […] The computer recorded 2 measures of response speed: reaction time, which was the time taken to lift the hand from the press-pad, and movement time, which was the latency from press-pad release to the time that the screen was touched. […]

The next experiment deals with GABAC receptor. Particulars: reported in U.S. Pat. No. 6,632,806; cited from earlier work.
Experiment [6] relates to patients with mild cognitive impairment (MCI). As to the kind of experiment: Rapid Visual Information Processing (RVIP) test (CANTAB), clinical trial. Particulars: 600 mg tid. It is filed as in vivo, human. The method, then:
A clinical trial was initiated to determine the effect of the GABAB receptor antagonist, ABPA, on specific tests of cognition in non-demented older individuals with diminished memory function who met prospective criteria for mild cognitive impairment (MCI). Patients aged 60-85 with MCI enrolled in this double-blind, randomized trial. Patients were randomized to ABPA (600 mg tid) or placebo for 8 weeks. Verbal, paper and computer tests of memory and cognition were made by trained assessors at baseline (before administration of ABPA or placebo) and after 2, 5, and 8 weeks of treatment. Among these were selected tests from the Cambridge Neuropsychological Test Automated Battery (CANTAB), a computerized battery of tests for neuropsychological evaluation (Robbins et al., 1994, “Cambridge Neuropsychological Test Automated Battery (CANTAB): A factor analytic study of a large sample of normal elderly volunteers,” Dementia 5:266-281). […]
The Rapid Visual Information Processing (RVIP) test is a test of sustained attention with a small working memory component. […] Responses were recorded with a button press. Reaction time, or mean hit latency, for all correct responses was recorded, as were additional signal detection measures (e.g., total hits, total misses and total false alarms). […]

Experiment [7] concerns coloboma mutant mice (Cm/+). As to the kind of experiment: Open field test, coloboma mutant mice. Particulars: parallel experiments. It is filed as in vivo, mouse.
The next experiment deals with coloboma mice (Cm/+). The settings on record: open field test; d-amphetamine at low doses; cited from earlier work.
A further experiment relates to wildtype mice. Particulars: d-amphetamine at the same dose as in coloboma mice; cited from earlier work.
For experiment [8], the system named is patients diagnosed with adult ADHD. Particulars: cited from earlier work.

As for `NCC(CC(=O)O)c1ccc(Cl)cc1` (stereo not drawn) [baclofen], the “dopamine release in the striatum” value in [1] is “decrease in striatal dopamine”.

Regarding `NCCCCC(=O)O` [5-AVA], the “dopamine release in the striatum” value in experiment [1] is “increase dopamine release in the striatum”.

On to `CCOC(OCC)P(=O)(O)CCCN` [CGP 35348], for which the “burst firing of VTA dopamine neurons” value in experiment [2] is “long-lasting increase in burst firing”.

For `CCCCP(=O)(O)CCCN` [ABPA, 3-aminopropyl-(n-butyl)-phosphinic acid], the “locomotor activity of wildtype controls” value in experiment [3] (3 mg/kg i.p.) and in [3] (30 mg/kg i.p.) was “no effect on the activity of wildtype controls” throughout. Also, the “frequency of zone crossings” value is given as “significant decrease in the frequency of zone crossings” in experiment [4] (0.3 mg/kg i.p., p=0.04, to within range of saline-treated wildtype); “strong trend to decreasing the zone crossings” in experiment [4] (3 mg/kg i.p., p=0.06); “significant decrease in the frequency of zone crossings” in [4] (30 mg/kg i.p., p=0.04, to within range of saline-treated wildtype). The “total distance traveled / locomotor activity” value in [4] (0.3 mg/kg i.p., p=0.07) is on record as “strong trend to decreasing the activity”; in [4] (3 mg/kg i.p., p=0.03), “significantly decreased locomotor activity levels”; in experiment [4] (30 mg/kg i.p., p=0.03), “significantly decreased locomotor activity levels”. Moreover, the psychomotor speed result with patients with MCI is given as “significant improvements in psychomotor speed”. Also, the “mean reaction time, change compared to baseline” value in [5] (8 weeks, p=0.002 vs placebo (+9.4)) was −19.7 milliseconds. Besides, the “reaction time vs baseline” value was “Decreased reaction time” in [5] (Week 2, p=0.074 vs placebo) and “Decreased reaction time” in [5] (Week 5, p=0.070 vs placebo). Besides, the GABAC receptor antagonism entry in the experiment with GABAC receptor is “antagonize”. The “mean hit latency, mean change from Baseline” value in [6] (Week 5, p=0.03 vs placebo (+15.0)) was -37.3 ms; in [6] (Week 8, p=0.02 vs placebo (−5.9)), -61.6 ms.

For the molecule `C[C@H](N)Cc1ccccc1` [d-amphetamine, dextro-amphetamine], the “activity in control (wildtype) mice” value in [3] (parallel experiments) is on record as “did increase activity”. Also, in [3] (parallel experiments), the “rearing frequency in control (wildtype) mice” value was “no effect on rearing frequency”. For the same molecule, the “activity in coloboma mice” value in [7] (0.5 mg/kg), in [7] (1 mg/kg) and in experiment [7] (4 mg/kg) was “did not reduce activity” in each case. The frequency of rearing result in experiment [7] (4 mg/kg) is reported as “did reduce the frequency of rearing”. The “activity levels / hyperactivity of coloboma mice” value (shortened to “activity levels / hyperactivity”) with coloboma mice (Cm/+) is on record as “reduced”. Also, the “activity levels of wildtype mice” value in the experiment on wildtype mice was “profound increases in activity”.

For `COC(=O)C(c1ccccc1)C1CCCCN1` (stereo not drawn) [methylphenidate], the “performance in the RVIP test” value in [8] was “improve performance in the RVIP test”. Further, the “activity levels / hyperactivity” value with coloboma mice (Cm/+) was “failed to normalize the hyperactivity”. For the same molecule, in the experiment on wildtype mice, the “activity levels of wildtype mice” value is “increasing locomotor activity”.

As to `CNCC[C@@H](Oc1ccccc1C)c1ccccc1` [atomoxetine], in [4] (0.1 mg/kg i.p., p=0.06), the “frequency of zone crossings” value is listed as “strong trend to decreasing the zone crossings”. The total distance traveled result in experiment [4] (0.1 mg/kg i.p., final 30 min of 60-min session, vs saline-treated Cm mutants, p=0.03) is recorded as “significantly decreased total distance traveled”. For the same molecule, the “activity levels / hyperactivity” value in the experiment with coloboma mice (Cm/+) is recorded as “reduces hyperactivity”. Further, the “activity levels of wildtype mice” value with wildtype mice was “without affecting activity levels”.
